In PubChem BioAssay (NCI):
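Exposure lasted 48 hours, with cells grown in 96-well plates and compounds tested at five concentrations. TGI is the concentration that stops growth completely.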

What was measured:
Assay in all cases: NCI tumour cell line growth inhibition, 48 h
[1] = test system: NCI/ADR-RES ovarian
[2] = test system: SK-MEL-5 melanoma
[3] = test system: ACHN renal
[4] = test system: LOX IMVI melanoma
[5] = test system: SNB-75 CNS
[6] = test system: NCI-H23 lung
[7] = test system: A498 renal
[8] = test system: MDA-MB-231 breast
[9] = test system: CAKI-1 renal
[10] = test system: HCT-15 colon

SMILES | TGI [1] [µM] | TGI [2] [µM] | TGI [3] [µM] | TGI [4] [µM] | TGI [5] [µM] | TGI [6] [µM] | TGI [7] [µM] | TGI [8] [µM] | TGI [9] [µM] | TGI [10] [µM]
O=c1[nH]c(=O)n(C2CC(O)C(CO)O2)cc1Br (centres undefined) | > 100 | > 100 | > 100 | > 100 | > 100 | > 100 | > 100 | > 100 | > 100 | > 100
CCOC(=O)c1cc(C)nc2c1c(=O)n(-c1ccccc1)c(=O)n2CCCCN1CCN(c2ncccn2)CC1 | > 100 | > 100 | > 100 | > 100 | > 100 | > 100 | > 100 | > 100 | 83.8 | –
O=C(NC1C/C(=N/O)c2c(Br)sc(Br)c21)C(F)(F)F (centres undefined) | 88.6 | 54.4 | > 100 | > 100 | > 100 | > 100 | 57.8 | 30.9 | 58 | > 100
COc1cc(/C=C/C(=N\NC(N)=S)c2sc(NNC(C)=O)nc2C)ccc1O | > 100 | > 100 | > 100 | > 100 | > 100 | > 100 | > 100 | > 100 | > 100 | > 100
CCOC(=O)NN(C(=O)OCC)C(C(=O)c1ccccc1)N(NC(=O)OCC)C(=O)OCC | > 100 | > 100 | > 100 | > 100 | > 100 | > 100 | > 100 | > 100 | > 100 | > 100
C(=N\NC1=NCCN1)/c1ccc2ccccc2c1 | 39.4 | 25.9 | 33.7 | 26.7 | > 100 | 51.1 | 28.9 | 35.3 | 28 | 43.6
Cc1[nH]c2nccn2c(=O)c1CCO | > 10 | > 10 | > 10 | > 10 | > 10 | > 10 | > 10 | > 10 | > 10 | > 10
C/C(=N\NC(N)=S)c1nc2ncccc2[nH]1 | > 100 | > 100 | > 100 | > 100 | > 100 | – | > 100 | > 100 | > 100 | > 100
O=C1c2cccnc2-c2nccc3c2c1nc1ccccc13 | 0.673 | 0.168 | – | 0.207 | 1.76 | 0.518 | 1.03 | 0.674 | 0.467 | 0.202
COc1ccc(Nc2nc(N)c(C(=O)c3ccc(Cl)cc3)s2)cc1 | 29.7 | 2.19 | 31.5 | 19.9 | 24.8 | 6.78 | > 100 | 6.13 | 13.4 | 5.49
CC(NNC(=O)c1ccncc1)c1cccc(C(F)(F)F)c1 (centres undefined) | > 100 | > 100 | > 100 | > 100 | > 100 | > 100 | > 100 | > 100 | > 100 | > 100
Fc1ccc(C(OCCN2CCC3CCC(C2)N3C/C=C/c2cccs2)c2ccc(F)cc2)cc1 (centres undefined) | 19.7 | 12.1 | 24.1 | 18.9 | 29 | 20.9 | 21 | 21.3 | 23.1 | 16.6
COc1cccc(OC)c1NC(=O)C(=O)Nn1c(NNC(=O)c2ccncc2)nc2ccccc2c1=O | > 100 | > 100 | > 100 | > 100 | > 100 | > 100 | > 100 | > 100 | > 100 | > 100
CSc1ncc2c(n1)-c1ccccc1OC2 | > 100 | > 100 | > 100 | > 100 | > 100 | > 100 | 73.6 | > 100 | 84.7 | > 100
COC(=O)c1c2c(cc3c1CC1(Cc4ccccc4C1)C3)CCC2 | 96.1 | 31.7 | 86.8 | 34 | > 100 | > 100 | > 100 | 44.9 | 78.2 | > 100
COc1ccc(N2C(=O)/C(=C/c3ccc(N(CCC#N)CCC#N)cc3)N=C2c2ccccc2)cc1 | > 100 | > 100 | > 100 | > 100 | > 100 | – | > 100 | > 100 | > 100 | > 100
C=C(C)CCC1C=[N+]([O-])OC(C)(C)C1(C)C (centres undefined) | > 100 | > 100 | > 100 | > 100 | > 100 | – | > 100 | > 100 | > 100 | > 100
O=c1[nH]c2ccc(CC(=S)N3CCOCC3)cc2o1 | > 100 | – | > 100 | > 100 | > 100 | > 100 | > 100 | > 100 | > 100 | > 100
